System: 885724-159-R-J1-PDC complex spheroid viability
Assay: Anticancer human tumor 885724-159-R-J1-PDC patient-derived pancreatic adenocarcinoma cell line growth inhibition [GQUAD]
Settings: for IC50: curve of first compound; for viability, T/C: stronger effect = lower value
Method in brief: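 Viability of tumor cells grown as complex spheroids with endothelial and stromal cells, exposed to drug combinations. Top concentration at or near clinical Cmax (else 10 microM), diluted in half-log increments.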

[1] = second compound 0.0316 µM, first compound 0.000999 µM
[2] = second compound 0.0316 µM, first compound 0.00316 µM
[3] = second compound 0.0316 µM, first compound 0.00999 µM
[4] = second compound 0.0316 µM, first compound 0.0316 µM
[5] = second compound 0.0316 µM, first compound 0.0999 µM
[6] = second compound 0.0316 µM, first compound 0.316 µM
[7] = second compound 0.1 µM, first compound 0.000999 µM
[8] = second compound 0.1 µM, first compound 0.00316 µM
[9] = second compound 0.1 µM, first compound 0.00999 µM
[10] = second compound 0.1 µM, first compound 0.0316 µM
[11] = second compound 0.1 µM, first compound 0.0999 µM
[12] = second compound 0.1 µM, first compound 0.316 µM
[13] = second compound 0.316 µM, first compound 0.000999 µM
[14] = second compound 0.316 µM, first compound 0.00316 µM
[15] = second compound 0.316 µM, first compound 0.00999 µM
[16] = second compound 0.316 µM, first compound 0.0316 µM
[17] = second compound 0.316 µM, first compound 0.0999 µM
[18] = second compound 0.316 µM, first compound 0.316 µM
[19] = second compound 1 µM, first compound 0.000999 µM
[20] = second compound 1 µM, first compound 0.00316 µM
[21] = second compound 1 µM, first compound 0.00999 µM
[22] = second compound 1 µM, first compound 0.0316 µM
[23] = second compound 1 µM, first compound 0.0999 µM
[24] = second compound 1 µM, first compound 0.316 µM
[25] = second compound 3.16 µM, first compound 0.000999 µM
[26] = second compound 3.16 µM, first compound 0.00316 µM
[27] = second compound 3.16 µM, first compound 0.00999 µM
[28] = second compound 3.16 µM, first compound 0.0316 µM
[29] = second compound 3.16 µM, first compound 0.0999 µM
[30] = second compound 3.16 µM, first compound 0.316 µM
[31] = second compound 10 µM, first compound 0.000999 µM
[32] = second compound 10 µM, first compound 0.00316 µM
[33] = second compound 10 µM, first compound 0.00999 µM
[34] = second compound 10 µM, first compound 0.0316 µM
[35] = second compound 10 µM, first compound 0.0999 µM
[36] = second compound 10 µM, first compound 0.316 µM
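Also: spheroids exposed to agents for seven days before readout.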
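For viability, T/C in this document: percent of vehicle control viability where 100% = DMSO wells.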

CC[C@@]1(O)C(=O)OCc2c1cc1n(c2=O)Cc2cc3c(CN(C)C)c(O)ccc3nc2-1 + CN(C)c1ccc(Nc2c3ccc(NC(=O)CCN4CCCC4)cc3nc3cc(NC(=O)CCN4CCCC4)ccc23)cc1
IC50 (second compound 0.0316 µM): > 316 nM | IC50 (second compound 0.1 µM): > 316 nM | IC50 (second compound 0.316 µM): > 316 nM | IC50 (second compound 1 µM): > 316 nM | IC50 (second compound 3.16 µM): > 316 nM | IC50 (second compound 10 µM): > 316 nM | viability, T/C [1]: 100% | viability, T/C [2]: 93.2% | viability, T/C [3]: 97.2% | viability, T/C [4]: 93.6% | viability, T/C [5]: 76.7% | viability, T/C [6]: 67.7% | viability, T/C [7]: 95.9% | viability, T/C [8]: 98.6% | viability, T/C [9]: 100% | viability, T/C [10]: 84.2% | viability, T/C [11]: 78% | viability, T/C [12]: 67.2% | viability, T/C [13]: 78.5% | viability, T/C [14]: 86.1% | viability, T/C [15]: 83.2% | viability, T/C [16]: 82.1% | viability, T/C [17]: 89.6% | viability, T/C [18]: 63.9% | viability, T/C [19]: 76.4% | viability, T/C [20]: 82.3% | viability, T/C [21]: 76.9% | viability, T/C [22]: 65.4% | viability, T/C [23]: 87.2% | viability, T/C [24]: 62.4% | viability, T/C [25]: 81.3% | viability, T/C [26]: 70.5% | viability, T/C [27]: 74.8% | viability, T/C [28]: 66.3% | viability, T/C [29]: 67.9% | viability, T/C [30]: 51.6% | viability, T/C [31]: 89.7% | viability, T/C [32]: 87.5% | viability, T/C [33]: 77.3% | viability, T/C [34]: 79.8% | viability, T/C [35]: 73.7% | viability, T/C [36]: 52.4%

CCc1c2c(nc3ccc(O)cc13)-c1cc3c(c(=O)n1C2)COC(=O)[C@]3(O)CC + CN(C)c1ccc(Nc2c3ccc(NC(=O)CCN4CCCC4)cc3nc3cc(NC(=O)CCN4CCCC4)ccc23)cc1
IC50 (second compound 0.0316 µM): 56.8 nM | IC50 (second compound 0.1 µM): 59.5 nM | IC50 (second compound 0.316 µM): 48.8 nM | IC50 (second compound 1 µM): 23.8 nM | IC50 (second compound 3.16 µM): 21.7 nM | IC50 (second compound 10 µM): 20 nM | viability, T/C [1]: 93.4% | viability, T/C [2]: 78.9% | viability, T/C [3]: 66.8% | viability, T/C [4]: 56.9% | viability, T/C [5]: 50.8% | viability, T/C [6]: 9.22% | viability, T/C [7]: 93.7% | viability, T/C [8]: 72.2% | viability, T/C [9]: 63.6% | viability, T/C [10]: 59.7% | viability, T/C [11]: 51.1% | viability, T/C [12]: 7.61% | viability, T/C [13]: 83.1% | viability, T/C [14]: 73.1% | viability, T/C [15]: 63.9% | viability, T/C [16]: 48.1% | viability, T/C [17]: 51.6% | viability, T/C [18]: 9.1% | viability, T/C [19]: 83.3% | viability, T/C [20]: 65% | viability, T/C [21]: 56.6% | viability, T/C [22]: 47.4% | viability, T/C [23]: 41.8% | viability, T/C [24]: 9.11% | viability, T/C [25]: 67.1% | viability, T/C [26]: 60.4% | viability, T/C [27]: 53.7% | viability, T/C [28]: 42.7% | viability, T/C [29]: 40.1% | viability, T/C [30]: 8.41% | viability, T/C [31]: 71% | viability, T/C [32]: 70.1% | viability, T/C [33]: 50.2% | viability, T/C [34]: 42.9% | viability, T/C [35]: 39.2% | viability, T/C [36]: 9.18%

— PubChem BioAssay AID2060502 (Molecular Pharmacology Branch, DTP, NCI, 2025)
